US20250230138A1, “COMPOUNDS HAVING A T-STRUCTURE FORMED BY AT LEAST FOUR CYCLES FOR USE IN THE TREATMENT OF CANCER AND OTHER INDICATIONS” (TheRas, Inc., priority 2022, published 2025)
Read-outs that look alike come from different tables or passages of the source.

Columns and labels:
[1] = molecular target: KRAS-PI3Kα interaction (KRAS-Q25A binding to avi-tagged full length PI3Kα) (Homo sapiens (Human), UniProt P42336); assay: Disrupting KRAS-PI3Kα interaction by SPR inhibition assay; settings: KRAS-Q25A at 20 μM, 25° C.
Chain of KRAS-PI3Kα interaction (KRAS-Q25A binding to avi-tagged full length PI3Kα) (P42336 whole entry, looked up, stated change not applied): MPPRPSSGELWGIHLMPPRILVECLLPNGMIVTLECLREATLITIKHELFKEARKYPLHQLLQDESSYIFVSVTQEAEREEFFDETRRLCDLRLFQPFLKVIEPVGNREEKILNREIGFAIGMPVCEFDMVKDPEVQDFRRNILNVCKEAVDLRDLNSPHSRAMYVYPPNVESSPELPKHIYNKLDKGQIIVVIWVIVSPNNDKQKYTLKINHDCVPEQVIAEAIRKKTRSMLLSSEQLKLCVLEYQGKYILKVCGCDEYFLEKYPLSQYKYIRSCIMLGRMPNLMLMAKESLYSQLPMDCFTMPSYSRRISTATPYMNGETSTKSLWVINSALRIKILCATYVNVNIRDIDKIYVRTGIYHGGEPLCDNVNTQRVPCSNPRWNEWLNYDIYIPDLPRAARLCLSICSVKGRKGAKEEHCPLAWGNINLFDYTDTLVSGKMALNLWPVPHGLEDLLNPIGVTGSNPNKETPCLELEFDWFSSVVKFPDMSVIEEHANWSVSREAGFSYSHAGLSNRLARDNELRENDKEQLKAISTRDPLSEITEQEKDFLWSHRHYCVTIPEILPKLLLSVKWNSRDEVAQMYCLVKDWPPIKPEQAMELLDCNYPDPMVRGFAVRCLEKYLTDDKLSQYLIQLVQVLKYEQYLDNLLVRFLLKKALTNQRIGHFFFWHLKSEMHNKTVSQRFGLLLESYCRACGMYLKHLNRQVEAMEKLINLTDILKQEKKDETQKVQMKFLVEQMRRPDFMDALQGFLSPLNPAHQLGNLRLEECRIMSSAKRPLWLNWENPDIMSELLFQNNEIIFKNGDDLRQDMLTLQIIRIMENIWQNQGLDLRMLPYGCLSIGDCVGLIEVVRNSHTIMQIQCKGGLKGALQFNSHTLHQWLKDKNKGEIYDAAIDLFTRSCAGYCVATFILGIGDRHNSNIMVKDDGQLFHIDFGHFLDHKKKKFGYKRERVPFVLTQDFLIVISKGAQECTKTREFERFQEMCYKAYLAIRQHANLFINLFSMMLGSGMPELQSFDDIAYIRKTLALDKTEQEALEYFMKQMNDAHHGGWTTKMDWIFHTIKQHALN
Chain of KRAS-PI3Kα interaction (KRAS-Q25A binding to avi-tagged full length PI3Kα) (P27986 whole entry partner, looked up): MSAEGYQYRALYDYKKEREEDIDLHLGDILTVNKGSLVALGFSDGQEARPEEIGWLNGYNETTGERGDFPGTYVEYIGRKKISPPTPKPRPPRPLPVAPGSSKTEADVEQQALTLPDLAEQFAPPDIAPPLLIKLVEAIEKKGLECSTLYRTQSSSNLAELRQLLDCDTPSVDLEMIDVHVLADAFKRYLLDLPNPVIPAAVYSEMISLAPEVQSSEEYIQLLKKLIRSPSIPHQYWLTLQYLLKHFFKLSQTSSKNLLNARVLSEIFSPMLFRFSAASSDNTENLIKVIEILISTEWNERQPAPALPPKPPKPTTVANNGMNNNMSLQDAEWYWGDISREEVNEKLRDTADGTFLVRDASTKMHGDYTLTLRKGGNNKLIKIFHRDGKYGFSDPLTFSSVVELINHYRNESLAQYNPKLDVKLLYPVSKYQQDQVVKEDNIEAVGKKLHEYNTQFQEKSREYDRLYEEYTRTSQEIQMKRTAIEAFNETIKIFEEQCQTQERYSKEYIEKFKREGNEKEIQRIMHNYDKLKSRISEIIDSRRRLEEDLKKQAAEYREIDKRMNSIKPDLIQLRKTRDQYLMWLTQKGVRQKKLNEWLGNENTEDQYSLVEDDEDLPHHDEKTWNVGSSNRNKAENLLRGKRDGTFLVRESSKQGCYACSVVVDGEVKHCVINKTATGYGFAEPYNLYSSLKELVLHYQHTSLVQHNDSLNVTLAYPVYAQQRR
Method: SPR binding experiments were collected on a Biacore 8K Instrument (Cytiva). Neutravidin (Pierce) was amine coupled to the carboxymethylated dextran surface of a CM5 sensor chip (Cytiva) using standard amine coupling chemistry. The CM5 chip surface was first activated with 0.1 M N-hydroxy succinimide and 0.4 M N-ethyl-N′-(3-dimethyl aminopropyl) carbodiimide at a flow rate of 20 μL/min using 20 mM HEPES pH 7.4, 150 mM NaCl as the running buffer. Next, neutravidin was diluted to 20 μg/mL in 10 mM sodium acetate (pH 4.5) and injected on all flow cells until a density of approximately 10,000 response units (RU) was immobilized. Activated amine groups were quenched with an injection of 1 M ethanolamine (pH 8.0). 300-500 RU of avi-tagged full length PI3Kα was captured on all flow cells in 20 mM HEPES pH 7.4, 150 mM NaCl, 5 mM MgCl2, 1 mM TCEP, 0.05% tween 20, 5% DMSO buffer. KRAS-Q25A at 20 μM was mixed with 8 concentrations of compound (50 nM-100 μM) and injected over the full-length PI3Kα at 30 μL/min and 25° C. Steady-state levels of KRAS binding were recorded and fit with a 4-parameter inhibition model to determine the IC50 values.

[2] = molecular target: Cys242 in human PIK3CA (157-299) (Homo sapiens (Human), UniProt P42336); assay: Covalent modification assay using MALDI-TOF MS; type: biochemical; settings: 4 h reaction time point
Chain of Cys242 in human PIK3CA (157-299) (P42336 157-299): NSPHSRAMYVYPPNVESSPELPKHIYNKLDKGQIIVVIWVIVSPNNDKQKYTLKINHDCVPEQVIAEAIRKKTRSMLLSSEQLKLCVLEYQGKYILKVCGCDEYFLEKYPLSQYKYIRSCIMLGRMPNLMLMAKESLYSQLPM
Outline: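 PIK3CA (157-299), 3.33 or 1 μM in 20 mM HEPES, 150 mM NaCl, 2 mM MgCl2, pH 7.3, was incubated with compound at room temperature in the dark for 15 min, 30 min, 2 h or 4 h. Linear MALDI-TOF read-out; % modification = adduct peak height over summed heights of all protein species.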

[3] = tested on: pAKT in BT474 cells; assay: Cell-based pAKT HTRF assay in BT474 cells; settings: BT474 cells, 4 hr incubation, read-out: pAKT inhibition IC50 in BT474 cells
Outline: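 Cells are seeded on day 1 and dosed on day 2 with a 9-point curve (3 μM top, 3-fold). After 4 hr they are lysed and the lysate is mixed with d2- and Eu Cryptate-labelled antibodies. HTRF is read after 4–24 h at room temperature.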

[4] = 3.33 μM protein target, 1:7.5 protein to compound ratio (compounds 1-852)
[5] = 1 μM protein target, 1:5 protein to compound ratio (compounds 853-1279)

| IC50 ([3]; Compounds 10-999) [nM] | SMILES | % of modification [2, 4] | also measured |
| --- | --- | --- | --- |
| – | COCCOc1ccccc1-c1c(-c2ccccc2)nc(-c2ccc3c(c2)CCNC3)c2ccsc12 [Compound 4, 7-[2-(2-methoxyethoxy)phenyl]-6-phenyl-4-(1,2,3,4-tetrahydroisoquinolin-6-yl)thieno[3,2-c]pyridine] | – | IC50 [1]: 5000 to 25000 nM |
| – | COCCOc1cc(F)ccc1-c1c(-c2nc3ccc(C(C)C)cc3[nH]2)nc(-c2ccc3c(c2)CCNC3)c2ccsc12 [compound 20] | – | IC50 [1]: > 25000 nM |
| – | COCCOc1cc(F)ccc1-c1c(-c2ccc(=O)n(C(C)C)c2)nc(-c2ccc3c(c2)CCNC3)c2ccsc12 [compound 26] | – | IC50 [1]: < 5000 nM |
| < 100 | C=CC(=O)N1CCc2ncc(-c3nc(-c4ccc5c(c4)CNC5=O)c4ccsc4c3-c3c(F)cc(F)cc3OCCOC)cc2C1 [Compound 379] | A (percent of modification of PIK3CA protein ≥75%) | – |
| < 100 | C=CC(=O)N1CCn2nc(-c3nc(-c4ccc5ncn(C)c5c4)c4ccsc4c3-c3c(F)cc(F)cc3OCCO)cc2[C@@H]1C [Compound 645] | A (percent of modification of PIK3CA protein ≥75%) | – |
| < 100 | C=CC(=O)N1CC(n2cc(-c3nc(-c4ccc5c(c4)CCNC5)c4ccsc4c3-c3ccc(F)cc3OCCOC)ncc2=O)C1 [Compound 210] | A (percent of modification of PIK3CA protein ≥75%) | – |
| < 100 | C=CC(=O)N1Cc2cc(-c3nc(-c4cnc5c(c4)CN(C)C5=O)c4ccsc4c3-c3c(F)cc(F)cc3OC(C)C)nn2C[C@H]1C [Compound 513] | A (percent of modification of PIK3CA protein ≥75%) | – |
| < 100 | C=CC(=O)N1CCc2nc(-c3nc(-c4ccc5c(c4)CCN(C)C5)c4ccsc4c3-c3c(F)cc(F)cc3OC(C)C)sc2C1 (single isomer, unassigned) [Compound 448] | A (percent of modification of PIK3CA protein ≥75%) | – |
| < 100 | C=CC(=O)N1Cc2cc(-c3nc(-c4ccc5ncn(C)c5c4)c4ccsc4c3-c3c(F)cc(F)cc3OCCOC)nn2C[C@H]1C [Compound 689] | A (percent of modification of PIK3CA protein ≥75%) | – |
| – | C=CC(=O)N1CCn2nc(-c3nc(-c4ccc5c(c4)CCC5N(C)C)c4ccsc4c3-c3c(F)cc(F)cc3OCCOC)cc2C1C (centres unmarked) [Compound 1182] | – | % of modification [2, 5]: A (percent of modification of PIK3CA protein ≥75%); IC50 ([3]; Compounds 1000-1279): < 100 nM |
| < 100 | C=CC(=O)N1CCn2nc(-c3nc(-c4ccnc(N)c4)c4ccsc4c3-c3ccc(F)cc3OC(F)F)cc2C1 [Compound 226] | A (percent of modification of PIK3CA protein ≥75%) | – |
| 100 to 1000 | C=C(F)C(=O)N1CCn2nc(-c3nc(-c4ccc5c(c4)CNC5=O)c4ccsc4c3-c3c(F)cc(F)cc3OC[C@@H](C)O)cc2C1 [Compound 517] | B (50%<percent of modification <75%) | – |
| < 100 | C=CC(=O)N1Cc2cc(-c3nc(-c4cc(C)ncn4)c4ccsc4c3-c3c(F)cc(F)cc3OCCOC)nn2CC1C (centres unmarked) [Compound 850] | A (percent of modification of PIK3CA protein ≥75%) | – |
| < 100 | C=CC(=O)N1CCn2nc(-c3nc(-c4ccc5c(c4)C(=O)N(C)CC5)c4ccsc4c3-c3c(F)cc(F)cc3OCCOC)cc2[C@H]1C [Compound 953] | – | % of modification [2, 5]: A (percent of modification of PIK3CA protein ≥75%) |
| – | C=CC(=O)N1CCn2nc(-c3nc(-c4ccc5c(c4)C(=O)NC5)c4ccsc4c3-c3c(F)cc(F)cc3OCC(C)(C)O)cc2[C@H]1C [Compound 1130] | – | % of modification [2, 5]: A (percent of modification of PIK3CA protein ≥75%); IC50 ([3]; Compounds 1000-1279): < 100 nM |
| 100 to 1000 | C=CC(=O)N1CCC(n2cc(-c3nc(-c4cnn5c4CNCC5)c4ccsc4c3-c3ccc(F)cc3OCCOC)cn2)CC1 [Compound 71] | A (percent of modification of PIK3CA protein ≥75%) | – |
| < 100 | C=CC(=O)N1CCc2cc(-c3nc(-c4cnc5c(c4)CNC(=O)C5)c4ccsc4c3-c3c(F)cc(F)cc3OC(C)C)nn2CC1 [Compound 568] | A (percent of modification of PIK3CA protein ≥75%) | – |

| IC50 ([3]; Compounds 10-999) [nM] | SMILES | % of modification [2, 4] | also measured |
| --- | --- | --- | --- |
| – | C=CC(=O)N1CCn2nc(-c3nc(-c4cccc(CN(C)C)c4)c4ccsc4c3-c3c(F)cc(F)cc3OCCOC)cc2C1C (centres unmarked) [Compound 1061] | – | % of modification [2, 5]: A (percent of modification of PIK3CA protein ≥75%); IC50 ([3]; Compounds 1000-1279): < 100 nM |
| < 100 | C=C(F)C(=O)N1CCn2nc(-c3nc(-c4ccc5c(c4)[C@@H](O)CC5)c4ccsc4c3-c3c(F)cc(F)cc3OC(C)C)cc2C1 [Compound 354] | B (50%<percent of modification <75%) | – |
| – | C=CC(=O)N1CCn2nc(-c3nc(-c4ccc(=O)n(C)c4)ncc3-c3ccc(F)cc3OC(C)C)cc2C1 [Compound 337, 5-[5-(4-fluoro-2-isopropoxy-phenyl)-4-(5-prop-2-enoyl-6,7-dihydro-4H-pyrazolo [1,5-a]pyrazin-2-yl)pyrimidin-2-yl]-1-methyl-pyridin-2-one] | B (50%<percent of modification <75%) | IC50 ([3]; Homo sapiens, BT-474, Compounds 10-999): > 3000 nM |
| < 100 | C=CC(=O)N1CCc2nc(-c3nc(-c4cnn(C)c4)c4ccsc4c3-c3ccc(F)cc3OCC3CCN(C)C(=O)C3)sc2C1 (centres unmarked) [Compound 221] | A (percent of modification of PIK3CA protein ≥75%) | – |
| – | C=CC(=O)N1CCn2nc(-c3nc(-c4cnc5c(c4)CN(C)CC5(C)C)c4ccsc4c3-c3c(F)cc(F)cc3OCCOC)cc2[C@H]1C [Compound 1161] | – | % of modification [2, 5]: A (percent of modification of PIK3CA protein ≥75%); IC50 ([3]; Compounds 1000-1279): < 100 nM |
| 100 to 1000 | C=CC(=O)N1CCc2nc(-c3nc(N4CCN(C(C)C)CC4)c4ccsc4c3-c3ccc(F)cc3OCCOC)sc2C1 [Compound 140] | A (percent of modification of PIK3CA protein ≥75%) | – |
| < 100 | C=CC(=O)N1CCc2nc(-c3nc(-c4ccc5c(c4)CCN(C)C5)c4ccsc4c3-c3c(F)cc(F)cc3OCCOC)sc2C1 (single isomer, unassigned) [Compound 450] | A (percent of modification of PIK3CA protein ≥75%) | – |
| 100 to 1000 | C=CC(=O)N1CC(n2cc(-c3nc(-c4cnn(CC5CC5(F)F)c4)c4ccsc4c3-c3ccc(F)cc3OCCOC)cn2)C1 (centres unmarked) [Compound 237] | A (percent of modification of PIK3CA protein ≥75%) | – |
| < 100 | C=CC(=O)N1Cc2cc(-c3nc(-c4cnc5c(c4)CN(C)C5=O)c4ccsc4c3-c3c(F)cc(F)cc3OC(C)C)nn2[C@@H](C)C1 [Compound 505] | A (percent of modification of PIK3CA protein ≥75%) | – |
| – | C=CC(=O)N1CCn2nc(-c3nc(-c4ccn5ccnc5c4)c4ccsc4c3-c3c(F)cc(F)cc3OCCOC)cc2C1C (centres unmarked) [Compound 1040] | – | % of modification [2, 5]: A (percent of modification of PIK3CA protein ≥75%); IC50 ([3]; Compounds 1000-1279): < 100 nM |
| 100 to 1000 | C=C(F)C(=O)N1CCn2nc(-c3nc(-c4ccc(=O)n(C)c4)c4ccsc4c3-c3ccc(F)cc3OC(C)C)cc2C1 [Compound 276] | A (percent of modification of PIK3CA protein ≥75%) | – |
| 100 to 1000 | C=CC(=O)N1CC(n2cc(-c3nc(-c4ccc5c(c4)CCNC5)c4c(c3-c3ccc(F)cc3OCCOC)CCC4)cn2)C1 [Compound 109] | A (percent of modification of PIK3CA protein ≥75%) | – |
| 100 to 1000 | CC#CC(=O)N1CCn2nc(-c3nc(-c4ccc5c(c4)CCNC5=O)c4ccsc4c3-c3ccc(F)cc3OC(C)C)cc2C1 [Compound 268] | A (percent of modification of PIK3CA protein ≥75%) | – |
| 100 to 1000 | C=CC(=O)N1CCc2nc(-c3nc(-c4cnn(C)c4)c4ccsc4c3-c3c(F)cc(Cl)cc3OCCOC)sc2C1 [Compound 464] | A (percent of modification of PIK3CA protein ≥75%) | – |
| 100 to 1000 | C=CC(=O)N1CCc2nc(-c3nc(-c4cnc(C)s4)c4ccsc4c3-c3c(F)cc(F)cc3OCCOC)sc2C1 [Compound 431] | A (percent of modification of PIK3CA protein ≥75%) | – |
| – | C=CC(=O)N1CCn2nc(-c3nc(-c4ccc5c(c4)NC(=O)CN(C)C5)c4ccsc4c3-c3c(F)cc(F)cc3OCCO)cc2C1C (centres unmarked) [Compound 1195] | – | % of modification [2, 5]: A (percent of modification of PIK3CA protein ≥75%); IC50 ([3]; Compounds 1000-1279): < 100 nM |
| < 100 | C=CC(=O)N1CCn2nc(-c3nc(-c4ccc5oc(C)nc5c4)c4ccsc4c3-c3c(F)cc(F)cc3OCCO)cc2[C@@H]1C [Compound 654] | A (percent of modification of PIK3CA protein ≥75%) | – |
